In US6414142B1, “Process for preparing potassium clavulanate” (SmithKline Beecham Corporation, priority 1996, dated 2002):

Key:
Format in all cases: physicochemical
[1] = Flowability of potassium clavulanate crystalline forms; details: crystalline form comparison, Example 5
[2] = Particle size distribution of potassium clavulanate crystalline forms; details: crystalline form comparison, Example 5
[3] = Stability / shelf-life compared with prior art crystalline forms; details: compared to rosette, needle and starburst forms; generally lower polymer level

Row | Structure (SMILES) | Flowabiiity [1] | Particle Size Distribution [2] | stability and shelf-life [3]
1 | O=C(O)[C@H]1/C(=C/CO)O[C@@H]2CC(=O)N21 [Rosette-like Starbursts, potassium clavulanate] | 4.8 | 35.1- 97.9 microns | greater stability
2 | O=C(O)[C@H]1/C(=C/CO)O[C@@H]2CC(=O)N21 [Starbursts/Broken Starbursts, potassium clavulanate] | – | 33.5-70.5 microns | –
3 | O=C(O)[C@H]1/C(=C/CO)O[C@@H]2CC(=O)N21 [Rosettes, potassium clavulanate] | 6.1 | 34.8- 66.4 microns | –
4 | O=C(O)[C@H]1/C(=C/CO)O[C@@H]2CC(=O)N21 [Needles/rods, potassium clavulanate] | 3.4 | 34.1-67.3 microns | –
